# Where two headings read alike, the source gives them in different places.
# Columns and labels:
# Cdc7/Dbf4 = Cdc7/Dbf4 (Homo sapiens (Human), UniProt O00311); experiment: Cdc7 Inhibition Assay; type: biochemical;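 further: reaction mixtures incubated 30 min on streptavidin-coated plates, then quantified by scintillation counting, with inhibition curves fitted by non-linear regression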
# Description: The reactions were incubated for 30 minutes on streptavidin-coated plates, washed, and quantified using a TopCount scintillation plate reader (Packard). IC50 values are determined via non-linear regression fitting of the data.
# HCT-116 cells = experiment: AlamarBlue Cell Viability Assays; type: cell-based; conditions: Homo sapiens, treated 72 hours
# Description: AlamarBlue Cell Viability Assays
# HCT-116 cells (3,000/well; 96-well format) were treated for 72 hours with increasing concentrations of compounds (0.01-30 μM in half-log increments). The cells were then incubated in fresh media with 10% AlamarBlue reagent (Invitrogen #DAL1100). AlamarBlue reactions were incubated according to the manufacturer's instructions (approximately 4 hours) and then analyzed using an fmax fluorescence microplate reader (Molecular Devices) using excitation/emission wavelengths of 544/595 nm. Data were analyzed using SOFTmax PRO software provided by the manufacturer.
# [1] = tested on: phospho-MCM2 Ser53 in HCT-116 cells; experiment: Phospho-MCM2 ELISA; type: cell-based; conditions: Homo sapiens, treated 6 hours
# Description: HCT-116 cells (20,000/well; 96-well format) were treated for 6 hours with increasing concentrations of compounds (0.01-10 μM in half-log increments). After removing the medium/inhibitor, the cells were frozen for 5 minutes and treated on ice with 20 μL of lysis buffer (Invitrogen #FNN0011) for 30 minutes. 80 μL of cold 2% BSA (in PBS) were then added to each well before transferring 80 μL to MCM2 antibody-coated plates (Bethyl #A300-122A, lot A300-122A-1). The plates were incubated overnight at 4° C., washed, and then incubated with the sandwich antibody (1:100 rabbit anti-human phospho-MCM2 Ser53; Bethyl #A300-756A, lot A300-756A-2) for 2 hours at room temperature. After another series of washes the samples are incubated for 1 hour with detection antibody (XSA-grade goat anti-rabbit-HRP, KPL #074-15-061, lot 50884, diluted to 2 μg/mL in 2% BSA). Plates were washed, developed using luminescence substrate (SuperSignal Pico for ELISA, Pierce #37069, Lot. HB101408), and read on a Molecular Devices M5 luminometer.
# [2] = 11 data point, read-out: Ki (μM) 11 data point
# Sequence of Cdc7/Dbf4 (O00311 whole entry): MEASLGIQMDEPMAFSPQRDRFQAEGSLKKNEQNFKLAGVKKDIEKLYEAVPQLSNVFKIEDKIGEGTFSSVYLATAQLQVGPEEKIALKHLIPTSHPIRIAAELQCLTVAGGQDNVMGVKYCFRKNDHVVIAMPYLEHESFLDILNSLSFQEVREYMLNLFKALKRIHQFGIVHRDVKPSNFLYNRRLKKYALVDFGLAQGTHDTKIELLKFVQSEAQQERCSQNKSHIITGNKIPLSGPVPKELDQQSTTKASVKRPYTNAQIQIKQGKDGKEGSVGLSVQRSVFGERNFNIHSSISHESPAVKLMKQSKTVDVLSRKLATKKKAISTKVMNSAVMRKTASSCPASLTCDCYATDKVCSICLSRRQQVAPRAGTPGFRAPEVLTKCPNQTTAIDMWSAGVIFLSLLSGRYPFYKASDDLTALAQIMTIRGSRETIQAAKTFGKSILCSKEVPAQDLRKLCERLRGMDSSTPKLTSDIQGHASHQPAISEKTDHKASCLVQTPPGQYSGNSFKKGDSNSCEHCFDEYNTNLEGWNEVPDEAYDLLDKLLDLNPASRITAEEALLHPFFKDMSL
# Sequence of Cdc7/Dbf4 (Q9UBU7 whole entry partner): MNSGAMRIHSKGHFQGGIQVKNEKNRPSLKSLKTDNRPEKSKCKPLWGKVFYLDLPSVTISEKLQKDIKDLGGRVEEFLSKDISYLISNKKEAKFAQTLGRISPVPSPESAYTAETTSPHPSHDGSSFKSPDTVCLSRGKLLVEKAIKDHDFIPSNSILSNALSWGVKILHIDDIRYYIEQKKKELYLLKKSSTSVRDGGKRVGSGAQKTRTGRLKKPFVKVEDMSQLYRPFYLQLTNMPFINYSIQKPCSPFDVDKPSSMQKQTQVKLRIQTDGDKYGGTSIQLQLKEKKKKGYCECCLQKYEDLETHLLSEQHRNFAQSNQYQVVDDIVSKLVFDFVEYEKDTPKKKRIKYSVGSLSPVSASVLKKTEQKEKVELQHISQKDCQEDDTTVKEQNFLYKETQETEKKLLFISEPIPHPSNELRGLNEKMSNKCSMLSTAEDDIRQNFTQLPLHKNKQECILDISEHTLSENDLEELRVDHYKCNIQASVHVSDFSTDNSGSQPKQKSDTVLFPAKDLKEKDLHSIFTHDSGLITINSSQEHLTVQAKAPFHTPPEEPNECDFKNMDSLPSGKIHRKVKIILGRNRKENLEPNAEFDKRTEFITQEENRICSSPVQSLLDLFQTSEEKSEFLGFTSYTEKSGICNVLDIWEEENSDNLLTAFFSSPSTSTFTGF
Structure (SMILES),"Ki (Cdc7/Dbf4; 6 data point, read-out: Ki (μM) 6 data point) [µM]",Ki (Cdc7/Dbf4; [2]) [µM],EC50 (HCT-116 cells) [µM],EC50 [1] [µM]
"CCNC(=O)Nc1n[nH]c2ccc(-c3cn(Cc4ccccc4)nn3)cc12 [Example 322, N-[5-(1-benzyl-1H-1,2,3-triazol-4-yl)-1H-indazol-3-yl]-N′-ethylurea]",,0.034,1.53,> 10
"Clc1ccccc1CNc1n[nH]c2ccc(-c3nnn(Cc4ccccc4)c3C3CC3)cc12 [Example 222, 5-(1-benzyl-5-cyclopropyl-1H-1,2,3-triazol-4-yl)-N-(2-chlorobenzyl)-1H-indazol-3-amine]",,0.093,2.11,> 10
"Nc1n[nH]c2ccc(-c3nnn(Cc4ccccc4)c3CC3CCCC3)cc12 [Example 409, 5-[1-benzyl-5-(cyclopentylmethyl)-1H-1,2,3-triazol-4-yl]-1H-indazol-3-amine]",,0.02,13.5,> 10
"Cc1ccccc1-c1c(-c2ccc3[nH]nc(N)c3c2)nnn1Cc1ccccc1 [Example 163, 5-[1-benzyl-5-(2-methylphenyl)-1H-1,2,3-triazol-4-yl]-1H-indazol-3-amine]",,,0.928,9.43
"Nc1n[nH]c2ccc(-c3nnn(Cc4ccccc4)c3C3CC3)cc12 [Example 89, 5-(1-benzyl-5-cyclopropyl-1H-1,2,3-triazol-4-yl)-1H-indazol-3-amine]",,0.035,5.48,> 10
"Cc1n[nH]c2ccc(-c3nnn(Cc4ccccc4)c3-c3ccc(F)cc3)cc12 [Example 408, 5-[1-benzyl-5-(4-fluorophenyl)-1H-1,2,3-triazol-4-yl]-3-methyl-1H-indazole]",,,> 30,1.96
"Cn1cc(-c2c(-c3ccc4[nH]nc(N)c4c3)nnn2Cc2ccccc2)cn1 [Example 189, 5-[1-benzyl-5-(1-methyl-1H-pyrazol-4-yl)-1H-1,2,3-triazol-4-yl]-1H-indazol-3-amine]",,0.0019,19.2,5.32
"COC(=O)c1n[nH]c2ccc(-c3cn(Cc4ccccc4)nn3)cc12 [Example 397, methyl 5-(1-benzyl-1H-1,2,3-triazol-4-yl)-1H-indazole-3-carboxylate]",,0.0811,24.8,
"c1ccc(Cn2cc(-c3ccc4[nH]nc(-c5cccs5)c4c3)nn2)cc1 [Example 401, 5-(1-benzyl-1H-1,2,3-triazol-4-yl)-3-thien-2-yl-1H-indazole]",,0.00492,6.72,> 10
"O=C(Nc1nn(C(=O)c2ccccc2)c2ccc(-c3nnn(Cc4ccccc4)c3C3CC3)cc12)c1ccccc1 [Example 204, N-[1-benzoyl-5-(1-benzyl-5-cyclopropyl-1H-1,2,3-triazol-4-yl)-1H-indazol-3-yl]benzamide]",,0.11,0.128,6.21
"Nc1n[nH]c2ccc(-c3nnn(Cc4ccccc4)c3Cc3ccccc3)cc12 [Example 405, 5-(1,5-dibenzyl-1H-1,2,3-triazol-4-yl)-1H-indazol-3-amine]",,0.0011,6.62,3.1
"Cc1c(-c2ccc3[nH]nc(N)c3c2)nnn1Cc1ccccc1 [Example 123, 5-(1-benzyl-5-methyl-1H-1,2,3-triazol-4-yl)-1H-indazol-3-amine]",,,3.86,> 10
"Nc1n[nH]c2ccc(-c3cn(Cc4ccccc4)nn3)cc12 [Example 62, 5-(1-benzyl-1H-1,2,3-triazol-4-yl)-1H-indazol-3-amine]",,,4.54,> 10
"O=C(Nc1n[nH]c2ccc(-c3cn(Cc4ccccc4)nn3)cc12)c1cccc(F)c1 [Example 395, N-[5-(1-benzyl-1H-1,2,3-triazol-4-yl)-1H-indazol-3-yl]-3-fluorobenzamide]",,,0.315,2.99

# Other lines, results leading:
"Ki (Cdc7/Dbf4; 6 data point, read-out: Ki (μM) 6 data point) [µM]",Ki (Cdc7/Dbf4; [2]) [µM],EC50 (HCT-116 cells) [µM],EC50 [1] [µM],Structure (SMILES)
0.0008,0.0009,2.9,4.16,"O=C(Nc1n[nH]c2ccc(-c3nnn(Cc4ccccc4)c3-c3ccccc3)cc12)c1ccccc1 [Example 198, N-[5-(1-benzyl-5-phenyl-1H-1,2,3-triazol-4-yl)-1H-indazol-3-yl]benzamide]"
,0.068,4.39,> 10,"Nc1n[nH]c2ccc(-c3nnn(Cc4ccccc4)c3-c3cccc(N4CCOCC4)c3)cc12 [Example 194, 5-[1-benzyl-5-(3-morpholin-4-ylphenyl)-1H-1,2,3-triazol-4-yl]-1H-indazol-3-amine]"
,,0.76,1.97,"O=C(Nc1n[nH]c2ccc(-c3cn(Cc4ccccc4)nn3)cc12)c1ccccc1 [Example 73, N-[5-(1-benzyl-1H-1,2,3-triazol-4-yl)-1H-indazol-3-yl]benzamide]"
,0.0556,0.143,> 10,"c1ccc(Cn2cc(-c3ccc4[nH]nc(-c5cn(Cc6ccccc6)nn5)c4c3)nn2)cc1 [Example 60, 3,5-bis(1-benzyl-1H-1,2,3-triazol-4-yl)-1H-indazole]"
,,3.19,3.13,"Nc1n[nH]c2ccc(-c3nnn(Cc4ccccc4)c3-c3ccccc3)cc12 [Example 102, 5-(1-benzyl-5-phenyl-1H-1,2,3-triazol-4-yl)-1H-indazol-3-amine]"
,0.068,1.56,> 10,"CCCN(C(N)=O)c1n[nH]c2ccc(-c3cn(Cc4ccccc4)nn3)cc12 [Example 319, N-[5-(1-benzyl-1H-1,2,3-triazol-4-yl)-1H-indazol-3-yl]-N-propylurea]"
,0.0077,3.98,8.79,"c1ccc(Cn2cc(-c3ccc4[nH]nc(-c5ccccc5)c4c3)nn2)cc1 [Example 61, 5-(1-benzyl-1H-1,2,3-triazol-4-yl)-3-phenyl-1H-indazole]"
,0.00105,18.2,4.31,"Fc1ccc(-c2c(-c3ccc4[nH]ncc4c3)nnn2CC2CCOCC2)cc1 [Example 167, 5-[5-(4-fluorophenyl)-1-(tetrahydro-2H-pyran-4-ylmethyl)-1H-1,2,3-triazol-4-yl]-1H-indazole]"
,,2.42,> 10,"O=C(Nc1n[nH]c2ccc(-c3nnn(Cc4ccccc4)c3C3CC3)cc12)c1cccc(Cl)c1 [Example 224, N-[5-(1-benzyl-5-cyclopropyl-1H-1,2,3-triazol-4-yl)-1H-indazol-3-yl]-3-chlorobenzamide]"
,0.015,0.422,> 10,"COCC(=O)Nc1n[nH]c2ccc(-c3cn(Cc4ccccc4)nn3)cc12 [Example 64, N-[5-(1-benzyl-1H-1,2,3-triazol-4-yl)-1H-indazol-3-yl]-2-methoxyacetamide]"
,0.000601,11,5.95,"c1ccc(Cn2nnc(-c3ccc4[nH]ncc4c3)c2-c2ccccc2)cc1 [Example 87, 5-(1-benzyl-5-phenyl-1H-1,2,3-triazol-4-yl)-1H-indazole]"
,0.0127,> 30,,"Clc1ccc(Cn2cc(-c3ccc4[nH]ncc4c3)nn2)c(Cl)c1 [Example 32, 5-[1-(2,4-dichlorobenzyl)-1H-1,2,3-triazol-4-yl]-1H-indazole]"
,,8.64,3.76,"Nc1n[nH]c2ccc(-c3nnn(Cc4ccccc4)c3-c3ccc(F)cc3)cc12 [Example 151, 5-[1-benzyl-5-(4-fluorophenyl)-1H-1,2,3-triazol-4-yl]-1H-indazol-3-amine]"

# — US9163007B2, “5-substituted indazoles as kinase inhibitors” (AbbVie Inc., priority 2007, dated 2015)
